Where a name gives a salt, the structure may show the parent alone.
Legend:
EMT-6/P tumors = assay: Growth and event-free survival of subcutaneously implanted EMT-6/P tumors in BALB/c mice; assay type: in vivo, mouse; conditions: first experiment, FIG. 1A; s.c. EMT-6/P tumors in BALB/c mice, therapy from 50 mm3
Method: The combination of CTLA-4 blockade with metronomic chemotherapy regimens was evaluated. Murine EMT-6 breast tumor cells were subcutaneously implanted into syngeneic BALB/c mice (n=6-8/group) and therapies on the established tumors were evaluated. Murine CTLA-4 blockade was achieved using anti-mouse CD152 (CTLA-4), clone 9H10, injected on day 1 (100 μg/mouse) and on day 6 (35 μg/mouse) of therapy. Anti-CTLA-4 therapy was administered alone or combined with metronomic regimens. These included: (a) bolus (150 mg/kg, i.p.) CTX followed by metronomic CTX (20 mg/kg/day, p.o.), (b) metronomic CTX, and (c) sequential gemcitabine therapy (160 mg/kg every 3 days, i.p.) given when the tumors relapsed after the anti-CTLA-4 therapy.
Anti-CTLA-4 therapy combined with bolus plus low-dose CTX. To evaluate whether metronomic CTX regimens could be combined effectively with an anti-CTLA-4 treatment, a combination regimen was tested on subcutaneously implanted EMT-6/P tumors (FIG. 1A). For the chemotherapy component, a bolus with low dose CTX protocol consisting of a bolus of CTX (given on day 1 as a 150 mg/kg, i.p. injection) plus low-dose CTX (20 mg/kg/day, p.o., from day 1) was used. […]
Mice were monitored twice weekly for tumor growth, as measured using Vernier calipers, and calculated using the formula (length×width)/2, and for fluctuations in body weight. […]

[1] = mouse, in vivo
From the text: To assess the relative toxicity of the therapies, body weights of the mice over the course of the experiment was monitored, as in the previous studies (du Manoir et al., Clin Cancer Res., 2006, 12:904-16; Francia et al., Mol Cancer Ther., 2012, 11:680-89).
Mice were monitored twice weekly for tumor growth, as measured using Vernier calipers, and calculated using the formula (length×width)/2, and for fluctuations in body weight. Institutional guidelines were followed to determine when the experimental end points were reached. Results were also plotted as event-free survival (Kaplan-Meier analysis) over time, where the duration of event-free survival was defined as time to primary tumor progression beyond 1,200 mm3 or >15% weight loss, as in the previous study (du Manoir et al., Clin Cancer Res., 2006, 12, 904-16).

| SMILES | impact of therapy on tumor growth (EMT-6/P tumors) | body weight change / toxicity [1] |
| --- | --- | --- |
| O=P1(N(CCCl)CCCl)NCCCO1 (centres unmarked) [bolus with low dose CTX, Cyclophosphamide] | minimal reduction in tumor growth |  |
| Nc1ccn([C@@H]2O[C@H](CO)[C@@H](O)C2(F)F)c(=O)n1 [gemcitabine, Gemcitabine hydrochloride] |  | slight weight drop |
